Source: article PMC3914206

Tests used:
Assay in all cases: KiNativ chemical proteomics profiling in HeLa and PC3 cell lysates
Assay type in all cases: binding
[1] = molecular target: T1, selected panels of kinases in HeLa and PC3 cell lysates (Homo sapiens, UniProt O75460); settings: 10 uM; proteome HEL; peptide DLk[…]; labeling site Lys2
T1 construct: endogenous in cells; host or cells: HeLa and PC3 cell lysates

[2] = molecular target: T2, selected panels of kinases in HeLa and PC3 cell lysates (Homo sapiens, UniProt O96017); settings: 10 uM
T2 construct: endogenous in cells; host or cells: HeLa and PC3 cell lysates

[3] = molecular target: T3, selected panels of kinases in HeLa and PC3 cell lysates (Homo sapiens, UniProt P15056); settings: 10 uM; proteome HEL; peptide DLk[…]; labeling site Lys2
T3 construct: endogenous in cells; host or cells: HeLa and PC3 cell lysates

[4] = molecular target: T4, selected panels of kinases in HeLa and PC3 cell lysates (Homo sapiens, UniProt P19525); settings: 10 uM, PKR, peptide DLk[…], labeling site Lys2
T4 construct: endogenous in cells; host or cells: HeLa and PC3 cell lysates

[5] = molecular target: T5, selected panels of kinases in HeLa and PC3 cell lysates (Homo sapiens, UniProt P19784); settings: 10 uM; proteome PC3; peptide DVk[…]; labeling site Lys2
T5 construct: endogenous in cells; host or cells: HeLa and PC3 cell lysates

[6] = molecular target: T6, selected panels of kinases in HeLa and PC3 cell lysates (Homo sapiens, UniProt P23443); settings: 10 uM, peptide DLk[…], labeling site Lys2; for % Inhibition p70S6K: proteome PC3; for % Inhibiton, p70S6K: proteome HEL
T6 construct: endogenous in cells; host or cells: HeLa and PC3 cell lysates

[7] = molecular target: T7, selected panels of kinases in HeLa and PC3 cell lysates (Homo sapiens, UniProt P51617); settings: 10 uM; proteome PC3; peptide […]k[…]; labeling site Lys2
T7 construct: endogenous in cells; host or cells: HeLa and PC3 cell lysates

[8] = molecular target: T8, selected panels of kinases in HeLa and PC3 cell lysates (Homo sapiens, UniProt P53350); settings: 10 uM; PLK1; peptide DLk[…]; proteome HEL; labeling site Lys2
T8 construct: endogenous in cells; host or cells: HeLa and PC3 cell lysates

[9] = molecular target: T9, selected panels of kinases in HeLa and PC3 cell lysates (Homo sapiens, UniProt Q04912); settings: 10 uM; RON; peptide IQCAIkSLSR; proteome PC3; labeling site Lys1
T9 construct: endogenous in cells; host or cells: HeLa and PC3 cell lysates

[10] = molecular target: T10, selected panels of kinases in HeLa and PC3 cell lysates (Homo sapiens, UniProt Q15375); settings: 10 uM; proteome PC3; peptide […]kIPVR; labeling site Activation Loop
T10 construct: endogenous in cells; host or cells: HeLa and PC3 cell lysates

[11] = molecular target: T11, selected panels of kinases in HeLa and PC3 cell lysates (Homo sapiens, UniProt Q7RTN6); settings: 10 uM; STLK5; peptide YSVk[…]; proteome HEL; labeling site Activation Loop
T11 construct: endogenous in cells; host or cells: HeLa and PC3 cell lysates

[12] = molecular target: T12, selected panels of kinases in HeLa and PC3 cell lysates (Homo sapiens, UniProt Q8IVH8); settings: 10 uM; proteome PC3; peptide […]kVIK; labeling site Lys1
T12 construct: endogenous in cells; host or cells: HeLa and PC3 cell lysates

[13] = molecular target: T13, selected panels of kinases in HeLa and PC3 cell lysates (Homo sapiens, UniProt Q96Q15); settings: 10 uM; SMG1; peptide […]kTKPK; proteome HEL; labeling site ATP
T13 construct: endogenous in cells; host or cells: HeLa and PC3 cell lysates

[14] = molecular target: T14, selected panels of kinases in HeLa and PC3 cell lysates (Homo sapiens, UniProt Q96SB4); settings: 10 uM; SRPK1; peptide IIHTDIk[…]; proteome PC3; labeling site Lys2
T14 construct: endogenous in cells; host or cells: HeLa and PC3 cell lysates

[15] = molecular target: T15, selected panels of kinases in HeLa and PC3 cell lysates (Homo sapiens, UniProt Q9NZJ5); settings: 10 uM, PEK, peptide DLk[…], labeling site Lys2
T15 construct: endogenous in cells; host or cells: HeLa and PC3 cell lysates
T15 sequence (Q9NZJ5 30-1116): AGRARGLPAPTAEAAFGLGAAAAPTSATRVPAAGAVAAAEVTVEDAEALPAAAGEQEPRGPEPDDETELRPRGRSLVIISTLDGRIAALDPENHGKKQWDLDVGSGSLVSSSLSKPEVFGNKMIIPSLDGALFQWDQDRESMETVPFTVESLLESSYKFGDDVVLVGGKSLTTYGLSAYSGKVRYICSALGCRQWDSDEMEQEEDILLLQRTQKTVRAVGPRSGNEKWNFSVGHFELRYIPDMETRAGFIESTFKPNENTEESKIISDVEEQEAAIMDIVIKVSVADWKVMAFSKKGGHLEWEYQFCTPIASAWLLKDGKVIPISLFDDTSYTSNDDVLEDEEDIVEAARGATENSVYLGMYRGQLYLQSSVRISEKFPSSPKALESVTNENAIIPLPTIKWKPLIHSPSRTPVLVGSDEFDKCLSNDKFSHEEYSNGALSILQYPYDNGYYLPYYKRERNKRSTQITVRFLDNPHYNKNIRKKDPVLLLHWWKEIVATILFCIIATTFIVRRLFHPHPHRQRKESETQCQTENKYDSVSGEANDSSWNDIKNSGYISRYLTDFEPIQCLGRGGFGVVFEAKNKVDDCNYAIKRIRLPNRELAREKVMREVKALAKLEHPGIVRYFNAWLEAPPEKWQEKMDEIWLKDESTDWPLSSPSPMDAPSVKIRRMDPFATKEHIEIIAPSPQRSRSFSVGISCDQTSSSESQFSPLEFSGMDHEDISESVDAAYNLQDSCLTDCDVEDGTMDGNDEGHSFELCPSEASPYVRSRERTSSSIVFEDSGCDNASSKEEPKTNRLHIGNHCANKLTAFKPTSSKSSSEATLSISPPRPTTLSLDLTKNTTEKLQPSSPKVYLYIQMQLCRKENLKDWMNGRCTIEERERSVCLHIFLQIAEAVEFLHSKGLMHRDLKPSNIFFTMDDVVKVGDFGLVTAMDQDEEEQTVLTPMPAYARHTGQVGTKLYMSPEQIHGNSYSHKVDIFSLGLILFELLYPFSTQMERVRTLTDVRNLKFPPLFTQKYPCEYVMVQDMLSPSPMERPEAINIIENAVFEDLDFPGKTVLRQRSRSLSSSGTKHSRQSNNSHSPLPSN

[16] = molecular target: T16, selected panels of kinases in HeLa and PC3 cell lysates (Homo sapiens, UniProt Q9Y2H1); settings: 10 uM; proteome PC3; peptide DTGHIYAMkILR; labeling site Lys1
T16 construct: endogenous in cells; host or cells: HeLa and PC3 cell lysates

[17] = molecular target: T17, selected panels of kinases in HeLa and PC3 cell lysates (Homo sapiens, UniProt Q9Y6R4); settings: 10 uM, peptide DIk[…], labeling site Lys2
T17 construct: endogenous in cells; host or cells: HeLa and PC3 cell lysates

[18] = proteome HEL, peptide DLk[…], labeling site Lys2
[19] = proteome PC3, peptide DLk[…], labeling site Lys2
[20] = proteome PC3, peptide VAIkIISK, labeling site Lys1

T2 sequence (O96017 whole entry): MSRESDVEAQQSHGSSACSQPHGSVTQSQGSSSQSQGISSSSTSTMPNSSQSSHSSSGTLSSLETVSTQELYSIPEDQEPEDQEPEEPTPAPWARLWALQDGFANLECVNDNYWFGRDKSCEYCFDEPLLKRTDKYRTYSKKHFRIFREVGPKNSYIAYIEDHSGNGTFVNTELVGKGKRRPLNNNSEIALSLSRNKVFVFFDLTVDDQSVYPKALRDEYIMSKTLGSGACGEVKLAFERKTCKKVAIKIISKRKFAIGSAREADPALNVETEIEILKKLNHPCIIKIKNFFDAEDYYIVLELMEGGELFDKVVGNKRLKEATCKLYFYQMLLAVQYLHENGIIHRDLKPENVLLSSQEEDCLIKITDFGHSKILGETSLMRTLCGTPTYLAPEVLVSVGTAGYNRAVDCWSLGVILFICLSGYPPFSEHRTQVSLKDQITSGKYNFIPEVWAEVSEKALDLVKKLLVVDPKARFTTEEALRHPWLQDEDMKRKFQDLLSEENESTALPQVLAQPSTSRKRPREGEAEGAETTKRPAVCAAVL
T17 sequence (Q9Y6R4 whole entry): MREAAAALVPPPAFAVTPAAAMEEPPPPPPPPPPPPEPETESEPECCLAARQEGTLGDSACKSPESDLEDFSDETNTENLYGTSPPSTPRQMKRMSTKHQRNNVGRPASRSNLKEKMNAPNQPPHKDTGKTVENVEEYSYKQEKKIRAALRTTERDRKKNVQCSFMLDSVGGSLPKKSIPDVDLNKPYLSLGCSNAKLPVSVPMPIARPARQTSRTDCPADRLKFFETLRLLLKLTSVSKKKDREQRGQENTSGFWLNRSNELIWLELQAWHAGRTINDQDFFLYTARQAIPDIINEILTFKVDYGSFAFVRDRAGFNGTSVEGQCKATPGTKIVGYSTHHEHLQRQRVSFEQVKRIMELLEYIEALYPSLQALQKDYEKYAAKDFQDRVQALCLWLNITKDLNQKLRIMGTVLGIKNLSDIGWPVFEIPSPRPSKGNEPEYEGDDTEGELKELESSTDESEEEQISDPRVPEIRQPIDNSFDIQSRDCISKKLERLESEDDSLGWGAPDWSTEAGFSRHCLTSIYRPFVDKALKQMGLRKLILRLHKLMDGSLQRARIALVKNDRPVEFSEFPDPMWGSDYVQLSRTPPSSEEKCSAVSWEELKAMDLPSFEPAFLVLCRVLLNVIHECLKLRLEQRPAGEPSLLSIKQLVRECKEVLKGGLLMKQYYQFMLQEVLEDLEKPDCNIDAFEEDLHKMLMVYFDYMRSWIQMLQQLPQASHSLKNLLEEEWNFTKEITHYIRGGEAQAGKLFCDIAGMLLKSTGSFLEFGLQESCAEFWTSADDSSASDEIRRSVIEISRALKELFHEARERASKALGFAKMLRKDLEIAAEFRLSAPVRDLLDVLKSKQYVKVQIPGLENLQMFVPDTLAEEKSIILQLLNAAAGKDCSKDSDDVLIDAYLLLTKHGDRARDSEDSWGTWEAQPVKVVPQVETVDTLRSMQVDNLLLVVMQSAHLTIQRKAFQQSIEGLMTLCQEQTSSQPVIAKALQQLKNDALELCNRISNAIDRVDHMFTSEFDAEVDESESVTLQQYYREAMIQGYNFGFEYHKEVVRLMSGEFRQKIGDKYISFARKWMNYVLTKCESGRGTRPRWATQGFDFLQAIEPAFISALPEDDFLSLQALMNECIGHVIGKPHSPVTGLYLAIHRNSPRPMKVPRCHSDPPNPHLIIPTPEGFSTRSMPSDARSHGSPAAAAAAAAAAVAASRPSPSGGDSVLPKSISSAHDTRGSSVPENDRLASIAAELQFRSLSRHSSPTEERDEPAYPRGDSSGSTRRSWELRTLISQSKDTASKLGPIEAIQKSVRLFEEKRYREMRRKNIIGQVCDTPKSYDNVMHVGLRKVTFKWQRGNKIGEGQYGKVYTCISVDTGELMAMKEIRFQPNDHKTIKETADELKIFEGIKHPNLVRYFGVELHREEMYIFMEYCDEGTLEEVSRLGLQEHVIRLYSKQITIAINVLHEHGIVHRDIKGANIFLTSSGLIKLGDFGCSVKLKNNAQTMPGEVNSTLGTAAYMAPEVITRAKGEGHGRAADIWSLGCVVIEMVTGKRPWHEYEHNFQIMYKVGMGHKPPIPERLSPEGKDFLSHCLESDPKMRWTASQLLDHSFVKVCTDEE
T6 sequence (P23443 whole entry): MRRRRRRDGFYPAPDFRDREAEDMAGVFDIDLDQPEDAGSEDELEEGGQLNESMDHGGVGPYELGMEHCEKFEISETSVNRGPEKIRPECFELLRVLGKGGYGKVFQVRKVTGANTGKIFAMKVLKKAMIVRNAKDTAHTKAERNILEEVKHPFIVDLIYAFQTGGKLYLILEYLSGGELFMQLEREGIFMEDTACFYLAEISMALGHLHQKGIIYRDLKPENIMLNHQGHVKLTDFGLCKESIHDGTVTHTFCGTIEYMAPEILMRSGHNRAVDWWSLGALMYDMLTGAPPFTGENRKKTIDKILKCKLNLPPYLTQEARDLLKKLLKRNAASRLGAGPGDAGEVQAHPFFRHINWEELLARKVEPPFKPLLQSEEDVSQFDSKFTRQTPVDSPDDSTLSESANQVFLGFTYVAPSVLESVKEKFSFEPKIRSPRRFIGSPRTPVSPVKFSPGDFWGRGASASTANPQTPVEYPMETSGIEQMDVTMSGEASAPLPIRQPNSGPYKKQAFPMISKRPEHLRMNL
T4 sequence (P19525 whole entry): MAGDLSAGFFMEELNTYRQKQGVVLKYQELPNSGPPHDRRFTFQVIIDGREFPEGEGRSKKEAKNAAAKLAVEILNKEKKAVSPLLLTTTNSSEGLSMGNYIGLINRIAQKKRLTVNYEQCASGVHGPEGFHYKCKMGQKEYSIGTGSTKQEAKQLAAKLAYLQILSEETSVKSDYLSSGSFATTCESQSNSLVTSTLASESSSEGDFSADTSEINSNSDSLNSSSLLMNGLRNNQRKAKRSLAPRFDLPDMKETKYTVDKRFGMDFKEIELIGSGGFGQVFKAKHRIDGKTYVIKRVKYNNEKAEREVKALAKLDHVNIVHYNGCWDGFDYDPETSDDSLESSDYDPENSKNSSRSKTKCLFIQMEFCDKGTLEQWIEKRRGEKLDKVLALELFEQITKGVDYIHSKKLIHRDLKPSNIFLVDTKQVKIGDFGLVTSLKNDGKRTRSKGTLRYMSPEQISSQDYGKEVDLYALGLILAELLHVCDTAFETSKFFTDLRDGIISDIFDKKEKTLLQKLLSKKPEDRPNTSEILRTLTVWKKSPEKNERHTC
T12 sequence (Q8IVH8 whole entry): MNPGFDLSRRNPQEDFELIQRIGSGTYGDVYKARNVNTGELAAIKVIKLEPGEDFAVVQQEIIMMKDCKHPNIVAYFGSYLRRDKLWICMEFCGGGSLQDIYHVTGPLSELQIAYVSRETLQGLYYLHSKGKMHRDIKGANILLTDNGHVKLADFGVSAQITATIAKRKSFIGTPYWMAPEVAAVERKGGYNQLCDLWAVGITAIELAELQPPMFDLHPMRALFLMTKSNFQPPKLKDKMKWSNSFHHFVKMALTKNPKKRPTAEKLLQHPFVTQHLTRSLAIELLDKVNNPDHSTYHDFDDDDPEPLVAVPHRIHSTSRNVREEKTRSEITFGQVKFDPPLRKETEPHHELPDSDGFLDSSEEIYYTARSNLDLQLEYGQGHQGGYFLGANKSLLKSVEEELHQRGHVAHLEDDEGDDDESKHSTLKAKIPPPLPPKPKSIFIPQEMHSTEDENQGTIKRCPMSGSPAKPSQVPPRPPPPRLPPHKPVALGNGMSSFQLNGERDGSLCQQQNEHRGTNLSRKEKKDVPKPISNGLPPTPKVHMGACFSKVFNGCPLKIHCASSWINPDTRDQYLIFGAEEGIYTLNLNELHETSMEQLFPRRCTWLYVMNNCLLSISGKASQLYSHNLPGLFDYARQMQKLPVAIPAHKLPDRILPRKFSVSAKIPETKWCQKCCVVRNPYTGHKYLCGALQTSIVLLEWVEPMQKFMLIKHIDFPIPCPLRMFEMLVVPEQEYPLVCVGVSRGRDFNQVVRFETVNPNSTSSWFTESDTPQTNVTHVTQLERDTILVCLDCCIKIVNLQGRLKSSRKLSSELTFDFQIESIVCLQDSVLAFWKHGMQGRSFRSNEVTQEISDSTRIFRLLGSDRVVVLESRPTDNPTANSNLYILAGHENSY
T1 sequence (O75460 19-977): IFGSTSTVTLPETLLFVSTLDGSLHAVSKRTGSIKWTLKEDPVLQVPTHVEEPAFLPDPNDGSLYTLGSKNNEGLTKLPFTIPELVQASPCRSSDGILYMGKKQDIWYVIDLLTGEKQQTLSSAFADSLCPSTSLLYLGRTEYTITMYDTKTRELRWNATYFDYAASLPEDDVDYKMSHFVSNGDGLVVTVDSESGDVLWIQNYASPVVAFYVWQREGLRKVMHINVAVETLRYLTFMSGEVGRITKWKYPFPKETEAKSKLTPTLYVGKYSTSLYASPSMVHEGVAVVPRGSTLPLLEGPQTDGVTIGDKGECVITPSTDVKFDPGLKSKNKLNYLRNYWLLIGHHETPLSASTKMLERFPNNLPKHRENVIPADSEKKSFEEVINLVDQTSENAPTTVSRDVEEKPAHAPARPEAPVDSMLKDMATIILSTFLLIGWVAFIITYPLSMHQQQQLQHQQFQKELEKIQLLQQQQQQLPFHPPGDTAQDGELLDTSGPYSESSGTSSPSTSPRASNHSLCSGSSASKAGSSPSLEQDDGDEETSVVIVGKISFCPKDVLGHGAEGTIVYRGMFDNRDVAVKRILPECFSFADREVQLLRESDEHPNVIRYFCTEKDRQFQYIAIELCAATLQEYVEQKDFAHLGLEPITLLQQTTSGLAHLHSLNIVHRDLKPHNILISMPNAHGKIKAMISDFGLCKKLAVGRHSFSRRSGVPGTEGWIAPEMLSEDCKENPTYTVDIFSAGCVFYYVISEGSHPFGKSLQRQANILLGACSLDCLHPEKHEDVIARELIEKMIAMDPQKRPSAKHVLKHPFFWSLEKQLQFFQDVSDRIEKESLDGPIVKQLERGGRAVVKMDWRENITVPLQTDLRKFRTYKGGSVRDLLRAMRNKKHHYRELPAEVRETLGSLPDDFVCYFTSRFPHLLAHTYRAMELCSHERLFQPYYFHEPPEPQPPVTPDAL

SMILES | % Inhibiton, IRE1 [1] [%] | % Inhibiton, CHK2 [2, 18] [%] | % Inhibiton, CHK2 [2, 19] [%] | % Inhibiton, CHK2 [2, 20] [%] | % Inhibiton, BRAF [3] [%] | % Inhibition PKR ([4]; proteome HEL) [%] | % Inhibition PKR ([4]; proteome PC3) [%] | % Inhibiton, CK2a2 [5] [%] | % Inhibition p70S6K [6] [%] | % Inhibiton, p70S6K [6] [%] | % Inhibiton, IRAK1 [7] [%] | % Inhibition PLK1 [8] [%] | % Inhibition RON [9] [%] | % Inhibiton, EphA7 [10] [%] | % Inhibition STLK5 [11] [%] | % Inhibiton, KHS2 [12] [%] | % Inhibition SMG1 [13] [%] | % Inhibition SRPK1 [14] [%] | % Inhibition PEK ([15]; proteome HEL) [%] | % Inhibition PEK ([15]; proteome PC3) [%] | further results
COc1cc(C(=O)N2CCC(N3CCN(C)CC3)CC2)ccc1Nc1ncc2c(n1)N(C1CCCC1)c1ccccc1C(=O)N2C [Compound 25, 11-cyclopentyl-2-((2-methoxy-4-(4-(4-methylpiperazin-1-yl)piperidine-1-carbonyl)phenyl)amino)-5-methyl-5H-benzo[e]pyrimido[5,4-b][1,4]diazepin-6(11H)-one] | -1.8 | 15.6 | 0.0283 | 11.3 | -0.2 | 6.1 | -3.4 | -14.2 | 3.9 | 16.9 | 1.2 | 9.6 | -17.5 | -3.8 | -32.9 | -4.9 | -21.0 | -29.3 | 6.4 | 6.5 | % Inhibiton, NDR2 [16]: -0.235%; % Inhibiton, MAP3K4 ([17]; proteome HEL): 7.2%; % Inhibiton, MAP3K4 ([17]; proteome PC3): 2.6%
CCOc1cc(C(=O)N2CCC(N3CCN(C)CC3)CC2)ccc1Nc1ncc2c(n1)N(C1CCCC1)c1ccccc1C(=O)N2C [Compound 26] | -19 | -18.8 | 14.1 | 4.6 | 8.6 | -0.3 | -3.3 | 8 | 10 | -24.4 | -2.9 | 23.9 | 11.1 | 8.5 | ~72.8 | -3.3 | -4.8 | -25 | -23.3 | -4.9 | % Inhibiton, NDR2 [16]: 8.2%; % Inhibiton, MAP3K4 ([17]; proteome HEL): -12%; % Inhibiton, MAP3K4 ([17]; proteome PC3): -1.2%
